Assay results as given in patent US9637496B2, “Substituted 7-azabicycles and their use as orexin receptor modulators” (priority 2013, dated 2017).
Like-named read-outs stand apart in the source and are kept apart here.

Tests used:
[1] = molecular target: human orexin 1 receptor (Homo sapiens (Human), UniProt O43613); test: Human orexin 1 receptor radioligand binding (competitive binding, CHO membranes); details: read-out: hOX1 Ki
[2] = molecular target: human orexin 2 receptor (Homo sapiens (Human), UniProt O43614); test: Human orexin 2 receptor radioligand binding ([3H]-EMPA competition, HEK293 membranes); details: human orexin 2 receptor; Table 2, averages from between 2-20 runs; read-out: hOX2 Ki
[3] = molecular target: rat orexin 1 receptor (Rattus norvegicus (Rat), UniProt P56718); test: Rat orexin 1 receptor radioligand binding (competitive binding, HEK293 membranes); details: read-out: rOX1 Ki
[4] = human orexin 1 receptor, Table 2, averages from between 2-20 runs
[5] = rat orexin 1 receptor, Table 2, averages from between 2-20 runs

Sequence of human orexin 2 receptor (O43614 whole entry): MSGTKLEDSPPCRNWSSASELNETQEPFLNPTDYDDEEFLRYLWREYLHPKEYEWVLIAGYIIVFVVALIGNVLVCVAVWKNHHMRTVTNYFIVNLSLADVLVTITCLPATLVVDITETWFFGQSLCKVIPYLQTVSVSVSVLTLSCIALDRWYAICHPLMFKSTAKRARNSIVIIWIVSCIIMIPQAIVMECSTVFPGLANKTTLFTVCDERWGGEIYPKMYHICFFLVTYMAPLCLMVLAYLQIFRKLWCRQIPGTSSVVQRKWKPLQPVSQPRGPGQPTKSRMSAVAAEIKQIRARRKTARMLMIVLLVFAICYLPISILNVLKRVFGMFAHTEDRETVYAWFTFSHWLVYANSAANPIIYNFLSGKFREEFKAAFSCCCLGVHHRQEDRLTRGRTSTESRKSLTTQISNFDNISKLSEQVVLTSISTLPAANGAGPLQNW
Sequence of human orexin 1 receptor (O43613 whole entry): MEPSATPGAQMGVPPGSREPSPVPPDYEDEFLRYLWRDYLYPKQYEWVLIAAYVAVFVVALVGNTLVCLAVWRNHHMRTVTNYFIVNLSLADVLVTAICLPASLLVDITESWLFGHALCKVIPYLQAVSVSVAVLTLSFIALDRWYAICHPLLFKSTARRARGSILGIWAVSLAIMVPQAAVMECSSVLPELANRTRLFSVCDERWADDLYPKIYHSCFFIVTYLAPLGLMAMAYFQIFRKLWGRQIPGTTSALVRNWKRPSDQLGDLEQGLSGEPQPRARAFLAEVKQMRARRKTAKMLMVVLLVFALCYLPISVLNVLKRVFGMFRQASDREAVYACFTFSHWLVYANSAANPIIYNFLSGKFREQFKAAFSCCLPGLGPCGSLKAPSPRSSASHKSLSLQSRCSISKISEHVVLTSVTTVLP
Sequence of rat orexin 1 receptor (P56718 whole entry): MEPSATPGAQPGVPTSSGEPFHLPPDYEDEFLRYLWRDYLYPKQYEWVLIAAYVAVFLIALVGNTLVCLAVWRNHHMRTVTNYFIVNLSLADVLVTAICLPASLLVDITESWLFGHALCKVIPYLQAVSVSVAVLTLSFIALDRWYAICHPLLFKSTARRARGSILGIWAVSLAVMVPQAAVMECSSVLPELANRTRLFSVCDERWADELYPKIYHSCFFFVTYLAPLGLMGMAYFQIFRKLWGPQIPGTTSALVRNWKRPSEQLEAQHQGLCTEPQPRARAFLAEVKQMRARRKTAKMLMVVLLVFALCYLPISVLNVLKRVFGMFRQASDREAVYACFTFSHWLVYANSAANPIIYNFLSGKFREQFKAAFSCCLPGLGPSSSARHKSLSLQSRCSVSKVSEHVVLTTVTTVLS

SMILES | Ki [1] | Ki [2] | Ki [3] | Ki [1, 4] | Ki [3, 5]
O=C(c1ccccc1-c1ncc(F)cn1)N1[C@@H]2CC[C@H]1[C@H](Nc1ccc(C(F)(F)F)cn1)C2 [Example 374, (2-(5-fluoropyrimidin-2-yl)phenyl)((1S,2R,4R)-2-((5-(trifluoromethyl)pyridin-2-yl)amino)-7-azabicyclo[2.2.1]heptan-7-yl)methanone] | 31 nM | 921 nM | 41 nM | – | –
O=C(c1cccc(F)c1-c1ncc(F)cn1)N1[C@@H]2CC[C@H]1[C@H](Nc1ccc(C(F)(F)F)cn1)C2 [Example 375, (3-fluoro-2-(5-fluoropyrimidin-2-yl)phenyl)((1S,2R,4R)-2-((5-(trifluoromethyl)pyridin-2-yl)amino)-7-azabicyclo[2.2.1]heptan-7-yl)methanone] | 89 nM | 2200 nM | 49 nM | – | –
O=C(c1cccc(Cl)c1-c1ncccn1)N1[C@@H]2CC[C@H]1[C@H](Nc1ccc(C(F)(F)F)cn1)C2 [Example 376, (3-chloro-2-(pyrimidin-2-yl)phenyl)((1S,2R,4R)-2-((5-(trifluoromethyl)pyridin-2-yl)amino)-7-azabicyclo[2.2.1]heptan-7-yl)methanone] | 4 nM | 110 nM | 10 nM | – | –
CN(c1ccc(C(F)(F)F)cn1)[C@@H]1C[C@H]2CC[C@@H]1N2C(=O)c1cccc(F)c1-c1ncccn1 [Example 377, (3-fluoro-2-(pyrimidin-2-yl)phenyl)((1S,2R,4R)-2-(methyl(5-(trifluoromethyl)pyridin-2-yl)amino)-7-azabicyclo[2.2.1]heptan-7-yl)methanone] | – | 9000 nM | – | 141 nM | 224 nM
Cc1cnc(C(=O)N2[C@@H]3CC[C@H]2[C@H](Nc2ccc(C(F)(F)F)cn2)C3)c(-c2ncccn2)c1 [Example 380, (5-methyl-3-(pyrimidin-2-yl)pyridin-2-yl)((1S,2R,4R)-2-((5-(trifluoromethyl)pyridin-2-yl)amino)-7-azabicyclo[2.2.1]heptan-7-yl)methanone] | 48 nM | 8500 nM | 28 nM | – | –
O=C(c1ncccc1-c1ncccn1)N1[C@@H]2CC[C@H]1[C@H](Nc1ccc(C(F)(F)F)cn1)C2 [Example 381, (3-(pyrimidin-2-yl)pyridin-2-yl)((1S,2R,4R)-2-((5-(trifluoromethyl)pyridin-2-yl)amino)-7-azabicyclo[2.2.1]heptan-7-yl)methanone] | 25 nM | 790 nM | 25 nM | – | –
O=C(c1cccc(F)c1-c1ncccn1)N1[C@@H]2CC[C@H]1[C@H](Nc1ncc(C(F)(F)F)cc1F)C2 [Example 382, (3-fluoro-2-(pyrimidin-2-yl)phenyl)((1S,2R,4R)-2-((3-fluoro-5-(trifluoromethyl)pyridin-2-yl)amino)-7-azabicyclo[2.2.1]heptan-7-yl)methanone] | – | 1100 nM | – | 15 nM | 18 nM
O=C(c1cccc(F)c1-n1nccn1)N1[C@@H]2CC[C@H]1[C@H](Nc1ncc(C(F)(F)F)cc1Cl)C2 [Example 383, ((1S,2R,4R)-2-((3-chloro-5-(trifluoromethyl)pyridin-2-yl)amino)-7-azabicyclo[2.2.1]heptan-7-yl)(3-fluoro-2-(2H-1,2,3-triazol-2-yl)phenyl)methanone] | – | 767 nM | – | 16 nM | 33 nM
O=C(c1cccc(F)c1-c1ncccn1)N1[C@@H]2CC[C@H]1[C@H](Nc1ncc(C(F)(F)F)cc1Cl)C2 [Example 384, ((1S,2R,4R)-2-((3-chloro-5-(trifluoromethyl)pyridin-2-yl)amino)-7-azabicyclo[2.2.1]heptan-7-yl)(3-fluoro-2-(pyrimidin-2-yl)phenyl)methanone] | – | 612 nM | – | 12 nM | 15 nM
O=C(c1ccccc1-c1ncc(F)cn1)N1[C@@H]2CC[C@H]1[C@H](Nc1ncc(C(F)(F)F)cc1Cl)C2 [Example 385, ((1S,2R,4R)-2-((3-chloro-5-(trifluoromethyl)pyridin-2-yl)amino)-7-azabicyclo[2.2.1]heptan-7-yl)(2-(5-fluoropyrimidin-2-yl)phenyl)methanone] | 44 nM | 696 nM | 37 nM | – | –
O=C(c1ccccc1-c1ncccn1)N1[C@@H]2CC[C@H]1[C@H](Nc1ncc(C(F)(F)F)cc1Cl)C2 [Example 386, ((1S,2R,4R)-2-((3-chloro-5-(trifluoromethyl)pyridin-2-yl)amino)-7-azabicyclo[2.2.1]heptan-7-yl)(2-(pyrimidin-2-yl)phenyl)methanone] | – | 499 nM | – | 29 nM | 20 nM
O=C(c1ncccc1-c1ncccn1)N1[C@@H]2CC[C@H]1[C@H](Nc1ncc(C(F)(F)F)cc1Cl)C2 [Example 387, ((1S,2R,4R)-2-((3-chloro-5-(trifluoromethyl)pyridin-2-yl)amino)-7-azabicyclo[2.2.1]heptan-7-yl)(3-(pyrimidin-2-yl)pyridin-2-yl)methanone] | – | 1100 nM | – | 33 nM | 40 nM
O=C(c1cccc(F)c1-n1nccn1)N1[C@@H]2CC[C@H]1[C@H](Nc1ccc(C(F)F)cn1)C2 [Example 388, ((1S,2R,4R)-2-((5-(difluoromethyl)pyridin-2-yl)amino)-7-azabicyclo[2.2.1]heptan-7-yl)(3-fluoro-2-(2H-1,2,3-triazol-2-yl)phenyl)methanone] | – | 1100 nM | – | 118 nM | 130 nM
O=C(c1cccc(F)c1-c1ncccn1)N1[C@@H]2CC[C@H]1[C@H](Nc1ccc(C(F)F)cn1)C2 [Example 389, ((1S,2R,4R)-2-((5-(difluoromethyl)pyridin-2-yl)amino)-7-azabicyclo[2.2.1]heptan-7-yl)(3-fluoro-2-(pyrimidin-2-yl)phenyl)methanone] | – | 741 nM | – | 168 nM | 123 nM
N#Cc1ccc(N[C@@H]2C[C@H]3CC[C@@H]2N3C(=O)c2cccc(F)c2-n2nccn2)nc1 [Example 390, 6-(((1S,2R,4R)-7-(3-fluoro-2-(2H-1,2,3-triazol-2-yl)benzoyl)-7-azabicyclo[2.2.1]heptan-2-yl)amino)nicotinonitrile] | – | > 10000 nM | – | 1400 nM | 1500 nM
Cc1cccc(C(=O)N2[C@@H]3CC[C@H]2[C@H](Nc2ccc(C#N)cn2)C3)c1-n1nccn1 [Example 391, 6-(((1S,2R,4R)-7-(3-methyl-2-(2H-1,2,3-triazol-2-yl)benzoyl)-7-azabicyclo[2.2.1]heptan-2-yl)amino)nicotinonitrile] | – | 4400 nM | – | 315 nM | 220 nM
N#Cc1ccc(N[C@@H]2C[C@H]3CC[C@@H]2N3C(=O)c2cccc(F)c2-c2ncccn2)nc1 [Example 392, 6-(((1S,2R,4R)-7-(3-fluoro-2-(pyrimidin-2-yl)benzoyl)-7-azabicyclo[2.2.1]heptan-2-yl)amino)nicotinonitrile] | – | > 10000 nM | – | 1400 nM | 1000 nM
Cc1cccc(C(=O)N2[C@@H]3CC[C@H]2[C@H](Nc2ccc(C#N)cn2)C3)c1-c1ncccn1 [Example 393, 6-(((1S,2R,4R)-7-(3-methyl-2-(pyrimidin-2-yl)benzoyl)-7-azabicyclo[2.2.1]heptan-2-yl)amino)nicotinonitrile] | – | 8300 nM | – | 323 nM | 500 nM
Cc1cccc(C(=O)N2[C@@H]3CC[C@H]2[C@H](Nc2ccc(C#N)cn2)C3)c1-c1ncco1 [Example 394, 6-(((1S,2R,4R)-7-(3-methyl-2-(oxazol-2-yl)benzoyl)-7-azabicyclo[2.2.1]heptan-2-yl)amino)nicotinonitrile] | – | 2100 nM | – | 250 nM | 187 nM
